Reference: patent US20090253629A1 (priority 2008, published 2009)
Values after ≈ are worked out from the molar mass of the structure shown. Values joined by “and” are separate entries in the source; they are usually repeats but may differ in a detail not shown here. Equal values may be shown once. Read-outs that look alike come from different tables or passages of the source.

Legend:
[1] = system: Streptococcus pneumoniae (1395); test: Minimum inhibitory concentration (MIC) against Streptococcus pneumoniae (1395); format: cell-based; details: penicillin-resistant serotype 9V, read-out: minimium inhibitory concentration (MIC)
Source text: (§1) An Isolate of a penicillin-resistant serotype 9V Streptococcus pneumoniae (1395), originally isolated from the CSF of a person with meningitis, was used in the meningitis model. This strain was formerly used for evaluating the effectiveness of treatment of meningitis with Moxifloxacin (see Ostergaard et al., 1998, “Evaluation of moxifloxacin, a new 8-methoxyquinolone, for treatment of meningitis caused by a penicillin-resistant pneumococcus in rabbits”, Antimicrob Agents Chemother 42(7): 1706-1712).
The synthetic defensin used in the experiment is a polypeptide having the amino acid sequence shown in SEQ ID NO: 1.

[2] = system: penicillin-resistant serotype 9V Streptococcus pneumoniae (1395); format: in vivo, New Zealand white rabbits; details: for reduction in bacterial burden in the cerebrospinal fluid (Δ log CFU), Average / reduction in bacterial burden in the cerebrospinal fluid (Δ log CFU): Ceftriaxon treatment; for reduction in bacterial burden in the cerebrospinal fluid (Δ log CFU), Average: average of rabbits 7-10; for reduction in bacterial burden in the cerebrospinal fluid (Δ log CFU): individual rabbits 7-10
Source text: as §1
The virulence of the strain was enhanced by passing the bacteria through a mouse peritonitis model. Bacteria from sampled peritoneal fluid were grown on blood agar plates, recovered and diluted in beef-broth with 10% glycerol added and frozen at −80° C.
The bacterial aliquots were thawn and grown on blood-agar plates, suspended in sterile beef-broth to reach an optical density of 3.5 at 540 nm, and subsequently diluted to obtain a final concentration of 1-2×10^6 CFU/ml.
Male New Zealand white rabbits weighing approx. 2500 g was used for the experiments. The rabbits arrived at the facilities 1-2 weeks prior to the experiment to allow for adaptation. They were kept in single cages covered with hay and offered food and water with no restrictions. Veterinarian expertise was available at the laboratory, and the experimental design was approved by the local animal legislation committee.
The rabbit was weighed and anaesthetized with dormicum 0.5 ml/kg (midazolam 5 mg/ml) s.c. and after 10 minutes with hypnorm 0.35 ml/kg (fentanylcitrat+fluanison) i.m.
The ears, scalp and neck of the rabbit were shaved and the skin disinfected. An incision measuring approx. 2 cm was made on the forehead of the rabbit and the scalp was exposed by blunt dissection. 4 bore holes were made demarcating a square and 4 screws were screwed up at right angles to the surface (2.5 to 3 turns). An acrylic helmet, embedding a turnbuckle, was moulded from dental casting material directly onto the scalp of the rabbit and the helmet was cooled under running water. The rabbit was put back into its cage with free access to food and water to rest for 8-10 hours until the time of bacterial inoculation or start of pharmacokinetic treatment study on uninfected rabbits. Analgesia with buprenorfin, 0.1 mg/kg, was given.
The head of the rabbit was immobilised in a stereotactic frame and a spinal canula was introduced in cisterna magna for the inoculation of 1×10^5 CFU pneumococci. After the bacterial inoculation, the rabbit was put back into its cage with access to food and water for another 8 hours.
The rabbit was re-anaesthetized with urethan 3.5 ml/kg ([…] 50%, 1.75 g/kg) s.c. at 7.30 a.m. A venous catheter was applied in the left ear-vein and Mebumal approx. 0.5-1 ml (Pentobarbital 50 mg/ml) i.v. was infused slowly until the rabbit was asleep and deeply anaesthetized. A three-way tap was connected to the venous catheter and syringes containing pentobarbital for supplemental anaesthetics and isotonic NaCl and heparin 1 Ul/ml for flushing were connected to the tap. Rabbits were observed every half hour. When the need for supplemental anaesthesia arose, additional 0.2 ml Mebumal (Pentobarbital 50 mg/ml) was given. During the experiment observations and anaesthetics were recorded in the scheme of the laboratory animal-department and in the book of the Laboratory Animal Inspection.
An arterial canula was applied in the artery of the right ear and used for blood-sampling throughout the experiment. A bolt was fastened to the turnbuckle embedded in the acrylic helmet, and the rabbit's head was fixed in a stereotactic frame. The rabbit remained fixed throughout the experiment.
Cisterna magna was punctured with a spinal-canula, fastened to the stereotactic frame. The canula was left in place throughout the experiment and used for CSF-sampling.

[3] = time 0 hours (normalized start)

CO/N=C(\C(=O)N[C@@H]1C(=O)N2C(C(=O)O)=C(CSc3nc(=O)c(=O)[nH]n3C)CS[C@H]12)c1csc(N)n1 [Ceftriaxone]
MIC [1]: 0.5 mg/L (≈ 0.902 µM) | reduction in bacterial burden in the cerebrospinal fluid (Δ log CFU), Average [2, 3]: 0.00 Δ log CFU | reduction in bacterial burden in the cerebrospinal fluid (Δ log CFU) [2, 3]: 0.00 Δ log CFU | bacterial burden in the cerebrospinal fluid ([2]; time 0 hours (start of treatment), Ceftriaxone 125 mg/kg at 0 h): 3,480,000 CFU/ml | reduction in bacterial burden in the cerebrospinal fluid (Δ log CFU), Average ([2]; time 3 hours): −2.12 Δ log CFU | reduction in bacterial burden in the cerebrospinal fluid (Δ log CFU) ([2]; time 3 hours): −2.26 Δ log CFU and −2.11 Δ log CFU and −2.53 Δ log CFU and −1.58 Δ log CFU | bacterial burden in the cerebrospinal fluid ([2]; time 3 hours, Ceftriaxone 125 mg/kg at 0 h): 92,500 CFU/ml | reduction in bacterial burden in the cerebrospinal fluid (Δ log CFU), Average ([2]; time 5 hours): −2.98 Δ log CFU | reduction in bacterial burden in the cerebrospinal fluid (Δ log CFU) ([2]; time 5 hours): −3.28 Δ log CFU and −2.77 Δ log CFU and −3.72 Δ log CFU and −2.14 Δ log CFU | bacterial burden in the cerebrospinal fluid ([2]; time 5 hours, Ceftriaxone 125 mg/kg at 0 h): 25,000 CFU/ml | reduction in bacterial burden in the cerebrospinal fluid (Δ log CFU), Average ([2]; time 10 hours): −4.18 Δ log CFU | reduction in bacterial burden in the cerebrospinal fluid (Δ log CFU) ([2]; time 10 hours): −5.16 Δ log CFU and −3.57 Δ log CFU and −4.32 Δ log CFU and −3.67 Δ log CFU | bacterial burden in the cerebrospinal fluid ([2]; time 10 hours, Ceftriaxone 125 mg/kg at 0 h): 750 CFU/ml | bacterial burden in the cerebrospinal fluid ([2]; time −10 hours (before treatment), Ceftriaxone group): 240,000 CFU/ml
